Experimental data reported in publication PMC4324634, “Bioprospecting the American Alligator (Alligator mississippiensis) Host Defense Peptidome” (PLoS ONE, 2015).
Where two headings read alike, the source gives them in different places. Where no end group is shown, it is not given here.

What was measured:
[1] = system: Bacillus cereus (ATCC 11778)
Protocol: (§1) The third step in the CAMP-discovery process is the evaluation of the antimicrobial effectiveness of the newly identified peptides. The eight synthetic peptides were tested against a panel of Gram-positive and Gram-negative bacteria. These bacteria include Bacillus cereus, Staphylococcus aureus, Escherichia coli, and Pseudomonas aeruginosa. […] When incubated with live metabolically-active cells, the non-fluorescent blue dye resazurin is converted to the highly fluorescent pink resorufin, as a result of reduction by the cells. While bacteria can reduce resazurin via multiple metabolic processes, the rate of conversion and the corresponding increase in fluorescence are directly proportional to the number of living cells in the sample [19–21, 25]. Thus, fluorometric detection of the rate of resazurin conversion to resorufin at 530ex/590em allows for quantification of bacterial survival following exposure to antibacterial compounds, such as CAMPs.
(§2) Escherichia coli (ATCC 25922), Bacillus cereus (ATCC 11778), Pseudomonas aeruginosa (ATCC 9027), and Staphylococcus aureus (ATCC 25923) used in these studies were purchased from the American Type Culture Collection (Manassas, VA). Bacteria were grown following ATCC recommended protocols for each strain and frozen aliquots were prepared in 20% glycerol and stored at -80°C for further use.
(§3) Frozen enumerated bacterial aliquots were thawed on ice and mixed. For each strain, bacteria are diluted to 2 × 10^6 CFU/mL in sterile 10 mM sodium phosphate (pH 7.4) and added in 50 µL aliquots to the wells of a 96-well black microtiter plate (Greiner Bio-One 655201) containing 50 µL volumes of serially diluted CAMP, dissolved in the same phosphate buffer. Control wells contain bacteria with no peptide. The microtiter plate was incubated for 3 hours at 30°C (B. cereus) or 37°C for other strains. After three hours, 100 µL of PBS solution with dissolved resazurin and MHB was added to each well. The amount of resazurin and MHB that was added is bacterial strain dependent, with the final resazurin (µM)/ MHB (wt/vol) concentrations being 100 µM/ 0.2% (wt/vol) for E. coli, 12.5 µM/ 0.05% (wt/vol) for B. cereus, 25 µM/ 2.2% (wt/vol) for P. aerugoinsa, and 50 µM/ 2.2% (wt/vol) for S. aureus. The metabolic conversion of resazurin to resorufin is bacterial strain dependent and requires concentrations optimized for each species to achieve a high-throughput assessment. Following addition of resazurin/MHB buffer, the plate was immediately placed in either a SpectraMax Gemini EM plate-reading fluorimeter (E. coli and B. cereus) or a TeCan Safire 2 fluorimeter (S. aureus and P. aeruginosa) for incubation overnight at either 30°C (B. cereus) or 37°C (other strains) while monitoring fluorescence for each well.
(§4) Fluorescence data was collected from each well during the monitoring period using equations compiled by microplate data software (SoftMax Pro 4.5 or Magellen 6). Onset time of half maximal fluorescence (T0.5) was used for quantifying bacterial concentrations. Standard curves were generated in preliminary experiments using serially diluted bacterial suspensions (~10^6 CFU/mL- 10^3 CFU/mL) without CAMPs. […] Correlating bacterial CFU values for wells containing peptide with control wells containing no CAMPs it is possible to determine bacterial survival for wells containing CAMPs.

[2] = system: Escherichia coli (ATCC 25922)
Protocol: as §1, §2, §3, §4

[3] = system: Pseudomonas aeruginosa (ATCC 9027)
Protocol: as §1, §2, §3, §4

[4] = system: Staphylococcus aureus (ATCC 25923)
Protocol: as §1, §2, §3, §4

Row | EC50 ([1]; ATCC 11778, 3 h, pH 7.4) | EC50 ([2]; ATCC 25922, 3 h, pH 7.4) | EC50 ([3]; ATCC 9027, 3 h, pH 7.4) | EC50 ([4]; ATCC 25923, 3 h, pH 7.4) | Molecule | EC50 ([1]; read-out: B. cereus EC50, B. cereus ATCC 11778, 2 × 10^6 CFU/mL stock mixed 1:1 with peptide in 10 mM sodium phosphate pH 7.4, 3 h at 30°C, resazurin fluorescence read-out (T0.5), triplicate, variable-slope sigmoidal fit) | EC50 ([2]; read-out: E. coli EC50, E. coli ATCC 25922, 2 × 10^6 CFU/mL stock mixed 1:1 with peptide in 10 mM sodium phosphate pH 7.4, 3 h at 37°C, resazurin fluorescence read-out (T0.5), triplicate, variable-slope sigmoidal fit) | EC50 ([3]; read-out: P. aeruginosa EC50, P. aeruginosa ATCC 9027, 2 × 10^6 CFU/mL stock mixed 1:1 with peptide in 10 mM sodium phosphate pH 7.4, 3 h at 37°C, resazurin fluorescence read-out (T0.5), triplicate, variable-slope sigmoidal fit) | EC50 ([4]; read-out: S. aureus EC50, S. aureus ATCC 25923, 2 × 10^6 CFU/mL stock mixed 1:1 with peptide in 10 mM sodium phosphate pH 7.4, 3 h at 37°C, resazurin fluorescence read-out (T0.5), triplicate, variable-slope sigmoidal fit)
1 | 9350 nM | 332 nM | 7020 nM | 2840 nM | YSLKKTSMKIIPFTRL [FGG398–413] |  |  |  | 
2 | 245 nM | 192 nM | 1410 nM | 9660 nM | FSTKTRNWFSEHFKKVKEKLKDTFA [APOC1_64–88] |  |  |  | 
3 | 210 nM | 151 nM | 948 nM | 7080 nM | KTRNWFSEHFKKVKEKLKDTFA [APOC1_67–88] |  |  |  | 
4 |  |  |  | 101000 nM | PPGASPRKKPRKQ [ASAP130LP] |  |  |  | 
5 |  |  |  |  | CC[C@H](C)[C@H](NC(=O)[C@H](CCCCN)NC(=O)[C@H](CCC(=O)O)NC(=O)[C@H](CCCCN)NC(=O)[C@H](CO)NC(=O)[C@H](CCCCN)NC(=O)[C@H](CCCNC(=N)N)NC(=O)[C@H](Cc1ccccc1)NC(=O)[C@H](Cc1ccccc1)NC(=O)[C@H](CC(=O)O)NC(=O)CNC(=O)[C@H](CC(C)C)NC(=O)[C@@H](N)CC(C)C)C(=O)NCC(=O)N[C@@H](CCCCN)C(=O)N[C@@H](CCC(=O)O)C(=O)N[C@@H](Cc1ccccc1)C(=O)N[C@@H](CCCCN)C(=O)N[C@@H](CCCNC(=N)N)C(=O)N[C@H](C(=O)N[C@H](C(=O)N[C@@H](CCC(N)=O)C(=O)N[C@@H](CCCNC(=N)N)C(=O)N[C@H](C(=O)N[C@@H](CCCCN)C(=O)N[C@@H](CC(=O)O)C(=O)N[C@@H](Cc1ccccc1)C(=O)N[C@@H](CC(C)C)C(=O)N[C@@H](CCCNC(=N)N)C(=O)N[C@@H](CC(N)=O)C(=O)N[C@@H](CC(C)C)C(=O)N[C@H](C(=O)N1CCC[C@H]1C(=O)N[C@@H](CCCNC(=N)N)C(=O)N[C@H](C(=O)N[C@@H](CCC(=O)O)C(=O)N[C@@H](CO)C(=O)O)[C@@H](C)O)C(C)C)[C@@H](C)CC)C(C)C)[C@@H](C)CC [LL-37, reference compound] | 28.7 nM | 8.21 nM | 525 nM | 552 nM
6 | 18700 nM | 245 nM | 11100 nM | 31800 nM | KKTSMKIIPFTRL [FGG401–413] |  |  |  | 

Row | Molecule | EC50 ([1]; ATCC 11778, 3 h, pH 7.4) | EC50 ([2]; ATCC 25922, 3 h, pH 7.4) | EC50 ([3]; ATCC 9027, 3 h, pH 7.4) | EC50 ([4]; ATCC 25923, 3 h, pH 7.4) | EC50 ([1]; read-out: B. cereus EC50, B. cereus ATCC 11778, 2 × 10^6 CFU/mL stock mixed 1:1 with peptide in 10 mM sodium phosphate pH 7.4, 3 h at 30°C, resazurin fluorescence read-out (T0.5), triplicate, variable-slope sigmoidal fit) | EC50 ([2]; read-out: E. coli EC50, E. coli ATCC 25922, 2 × 10^6 CFU/mL stock mixed 1:1 with peptide in 10 mM sodium phosphate pH 7.4, 3 h at 37°C, resazurin fluorescence read-out (T0.5), triplicate, variable-slope sigmoidal fit) | EC50 ([3]; read-out: P. aeruginosa EC50, P. aeruginosa ATCC 9027, 2 × 10^6 CFU/mL stock mixed 1:1 with peptide in 10 mM sodium phosphate pH 7.4, 3 h at 37°C, resazurin fluorescence read-out (T0.5), triplicate, variable-slope sigmoidal fit) | EC50 ([4]; read-out: S. aureus EC50, S. aureus ATCC 25923, 2 × 10^6 CFU/mL stock mixed 1:1 with peptide in 10 mM sodium phosphate pH 7.4, 3 h at 37°C, resazurin fluorescence read-out (T0.5), triplicate, variable-slope sigmoidal fit)
7 | VERIPLVRFKSIKKQLHERGDL [NOTS17–38] |  |  |  | 198000 nM |  |  |  | 
